Data: a melting point compilation (Tetko et al.; mined from patent text by program, amines drawn as free bases though some values may be those of a salt)

In the case of `Fc1ccc(OC2CCN(CCc3c[nH]c4ccc(OCc5ccccc5)cc34)CC2)cc1`, the melting point is reported as 134 to 136 °C. With `CCOC(=O)c1nn(-c2ccc(C)cc2)cc1-c1ccccc1` the melting point was 115 to 117 °C. For `O=C(NCCCO)c1cc(Br)c(Br)[nH]1`, the melting point was 160 to 162 °C. Work on `CC(NC(=O)Cc1cc(F)cc(F)c1)C(=O)NC1C(=O)NC(c2cccnc2)c2ccccc21` (centres undefined) yielded a melting point of 100 to 120 °C. In the case of `O=C(CCc1ccccc1C(=O)O)Nc1cccc(/C=C/c2nc(C3CCC3)cs2)c1`, the melting point is reported as 238 to 239 °C. Work on `CSc1ccc(C(=O)NN=C2C(=O)Nc3ccc(I)cc32)cc1` yielded a melting point of 298 °C. For `CS(=O)(=O)c1ccc(C(CC2CCCC2)c2nc(F)c(C(=O)C3CC3)[nH]2)cc1` (centres undefined), the melting point was 160 to 162 °C. For `CCn1c2ccc(C=O)cc2c2c3ccccc3ccc21`, the melting point was 143 to 144 °C. `CC1CC(C)(C)C(=O)C=C1Cc1ccc(Cl)cc1` (centres undefined) showed a melting point of 76 to 77 °C. `COc1ccc(N2CCCN(c3ccnc4sc(C(N)=O)c(N)c34)CC2)cc1` gave a melting point of 206 to 208 °C. Compound `COC(=O)c1cc(C(=O)c2c(C)c(NC(=O)c3cccc(OCCOS(C)(=O)=O)c3)c3ccccn23)ccc1N` has a melting point of 171 °C. `CC(=O)Nc1ccc(C(C)(C)C)cc1OC(C)=O` gave a melting point of 109 to 110 °C. `COc1cc(OC)c(-c2cc3ccccc3n2C)cc1C=CC(=O)c1ccc(C(=O)O)cc1` gave a melting point of 157 to 160 °C. `Cc1cc(C)c(Nc2nc(C)ncc2S(=O)(=O)c2ccc(OCc3ccccc3)cc2)c(C)c1` gave a melting point of 166 to 168 °C. `CCOC(=O)COc1ccc(C(=O)Nc2ccccc2S(=O)(=O)c2ccccc2C#N)cc1` gave a melting point of 131 to 132 °C. Compound `O=C(C=Cc1ccc2c(c1)OCO2)C1C(=O)CC(c2ccccc2)CC1=O` (centres undefined) has a melting point of 157 to 158 °C. Compound `CCCCCCCCCOc1cc(C(N)=O)ccn1` has a melting point of 108 to 110 °C. For `CCc1[nH]n(C2CCCC2)c2nc(Oc3ccccc3)nc(=O)c1-2`, the melting point was 175 to 177 °C. Work on `COc1cccc(Nc2nccc(-c3sc(N)nc3-c3ccccc3)n2)c1` yielded a melting point of 115 to 117 °C. `CCN(C(=O)c1ccccc1)C(=NC(=O)c1ccccc1)NCc1ccc(S(N)(=O)=O)cc1` gave a melting point of 70 to 80 °C. `COc1cccc(CC(CS)C(=O)Nc2c[nH]c(C(=O)O)c2)c1` (centres undefined) gave a melting point of 153 to 158 °C. Work on `COc1cc(-c2cc(C(F)(F)F)nn2-c2ccc(S(N)(=O)=O)c(F)c2)ccc1-c1cscn1` yielded a melting point of 97 to 99 °C. `N#Cc1ccc(Oc2cc(F)cc(F)c2)c([N+](=O)[O-])c1` showed a melting point of 132 to 136 °C. With `OC(CCCl)COc1ccc(Cl)cc1` (centres undefined) the melting point was 62 to 64 °C. Work on `CC(=O)c1ccc(Cl)c(C)c1F` yielded a melting point of 57 °C. For `CN1CCCCC1CCc1ccccc1NC(=O)c1ccoc1` (centres undefined), the melting point was 114 to 116 °C. With `COc1cccc(-c2ccc(N3CCCN(c4ccc(-c5cccc(OC)c5)cn4)CC3)nc2)c1` the melting point was 146 to 149 °C. With `NC(=O)c1ccc(Cn2ccc(OCc3ccc(F)cc3F)c(Cl)c2=O)cc1` the melting point was 235 to 238 °C. In the case of `COc1ccc(Nc2nc(Cl)cc(NC3CCCCCC3)n2)cc1Cl`, the melting point is reported as 74 to 76 °C. For `Cc1ccc(C)n1CCNC(=O)CN1CCCC1=O`, the melting point was 109 to 111 °C. Work on `CCCC[C@H](NC(=O)[C@H](CC(C)C)NC(=O)c1coc2ccccc12)C(=O)CSCc1ccco1` yielded a melting point of 113 to 116 °C. Compound `N[C@@H](Cc1ccccc1)C(=O)NC(=O)N(CCCl)N=O` has a melting point of 113 to 115 °C. Compound `Cc1cn(-c2ccc(NC(=O)c3ccc(C)c(Nc4nccc(-c5cccnc5)n4)c3)cc2C(F)(F)F)cn1` has a melting point of 154 to 163 °C. `CC(=O)Oc1ccc(-n2cc(C(=O)O)c(=O)cc2-c2ccc(N(C)C)cc2)cc1` gave a melting point of 128 to 131 °C. Compound `CON(Cc1ccc(Cl)c(Cl)c1)C(=O)C1=C(O)C(=O)N(C)C1` has a melting point of 149 °C. Work on `COc1ccc2cc(-c3ccc(Cl)c(-n4nc(C)nc4C)c3)c(=O)oc2c1` yielded a melting point of 210 °C. `COc1cc2c(Nc3ccc(Cl)cc3F)ncnc2cc1OCCN1C(=O)CCCC1=O` showed a melting point of 202 to 203 °C. With `COc1cccc(CCC(=O)O)c1C` the melting point was 143 to 147 °C. For `NC(=S)C1(c2ccccn2)SCCCS1`, the melting point was 214 °C. In the case of `CCCn1cnc2c1c(=O)n(CCCCCCO)c(=O)n2C`, the melting point is reported as 68 to 70 °C. For `COc1ccc(COc2ccc(NC(C)=O)cc2C(=O)C=Cc2ccc(OCc3ccccc3)cc2)cc1`, the melting point was 201 to 202 °C. For `O=C1c2c(ccc(O)c2O)CC1C(=O)c1c(F)c(F)c(F)c(F)c1F` (centres undefined), the melting point was 114 to 115 °C. Compound `O=C1c2ccc([N+](=O)[O-])cc2C(=O)N1CCc1ccccc1` has a melting point of 142 to 143 °C. `CCOC(=O)C1=C(CCCc2ccccc2)NC(C)=C(C(=O)OC)C1c1cccc([N+](=O)[O-])c1` (centres undefined) showed a melting point of 125 to 127 °C. `Cc1cc(C(N)=O)cc(C)c1C(=O)O` showed a melting point of 238 to 240 °C. `COc1ccc(C(NC(=O)C(C)c2ccccc2)c2cccc(Nc3c(N)c(=O)c3=O)c2)cc1` (centres undefined) gave a melting point of 206 to 209 °C. `CCc1noc(-c2cc3c(cn2)[nH]c2ccc(S(=O)(=O)N(C)C)cc23)n1` showed a melting point of 266 to 268 °C. `O=C(O)CN1C(=O)C(=CC=Cc2ccccc2Br)SC1=S` gave a melting point of 241 to 244 °C. With `O=C=NC1(c2ccccc2)CCC2(CC1)OCCO2` the melting point was 38 to 41 °C. Compound `CN1C2CCC1CN(c1ccc(Br)nn1)C2` has a melting point of 118 to 120 °C. Compound `O=C(Nc1ccccc1)Oc1cc(N2C(=O)C3=C(CCCC3)C2=O)c(F)cc1Cl` has a melting point of 149 to 151 °C. Compound `CC(C)(C)OC(=O)Nc1ccc(-c2ccc(S(=O)(=O)n3ccc(/C=C/C(=O)NOC4CCCCO4)c3)cc2)cn1` (centres undefined) has a melting point of 140 to 146 °C. With `CC(=O)Nc1ccccc1-c1ccc2c(c1)S(=O)(=O)NC(C1CCCCC1)N2` (centres undefined) the melting point was 245 to 249 °C. With `CCCCCCCCCCCCCCCCCCOCC(CO)Oc1nccs1` (centres undefined) the melting point was 65 to 67 °C. `O=[N+]([O-])c1ccc2nc(-c3ccc4c(c3)OCCO4)ncc2c1` showed a melting point of 263 to 265 °C. For `C=CCOc1cc(-n2c(OC)nc(C(F)(F)F)cc2=O)c(F)cc1Cl`, the melting point was 103 to 104 °C. Compound `CCn1cc(C(=O)C(=O)O)c2ccc(-c3ccc(C(F)(F)F)cc3)cc21` has a melting point of 247 to 248 °C. `O=C1CN(c2ccc(Cl)cc2)C(=S)N1c1ccc(Cc2ccccc2)cc1` gave a melting point of 153 °C. Compound `CC(C)(C)NS(=O)(=O)c1ccccc1CCO` has a melting point of 43 to 45 °C. `COc1ccc2[nH]c3c([N+](=O)[O-])ccc(Cl)c3c(=O)c2c1` gave a melting point of 262 to 264 °C. Work on `OC(CCc1ccc(F)cc1)c1cnc2sc3c(n12)CCCCC3` (centres undefined) yielded a melting point of 144 to 146 °C. Work on `Cc1ccc(-c2ccc3c(c2)C=C(C(=O)NC2CCN(CCC4CCCCC4)CC2)CCO3)cc1` yielded a melting point of 193 to 196 °C. With `CCn1cc(-c2ccc3nnn(Cc4ccc5ncccc5c4)c3n2)cn1` the melting point was 132 to 134 °C. For `CC(C)=CCCN1C(=O)c2ccccc2C1=O`, the melting point was 95 to 97 °C. For `FC(F)(F)C(F)(F)C(F)(F)C(F)(F)C(F)(F)C(F)(F)C(F)(F)C(F)(F)C(F)(F)Br`, the melting point was 30 °C. For `O=C(c1cccs1)c1cnn2c(-c3cccc(NCc4ccoc4)c3)ccnc12`, the melting point was 140 to 144 °C. In the case of `NS(=O)(=O)N(c1ccccc1)c1cccc(C(c2c(O)c3c(oc2=O)CCCCCC3)C2CC2)c1` (centres undefined), the melting point is reported as 90 to 95 °C. Compound `Cc1cc(-c2ccccc2)c2c(n1)C(C(N)=S)CCC2` (centres undefined) has a melting point of 174 to 175 °C. `O=C(c1ccc([N+](=O)[O-])c(OCC2CO2)c1)N1CCOCC1` (centres undefined) gave a melting point of 156 to 158 °C.
